Test results published in PMC8327781 (Journal of medicinal chemistry, 2021).
Like-named read-outs stand apart in the source and are kept apart here.

Target: JAK2 KD (Homo sapiens, UniProt O60674)
Experiment: Recombinant JAK2 KD protein levels in transfected Expi293F cells
Type: cell-based

JAK2 KD, sequence (O60674 840-1132): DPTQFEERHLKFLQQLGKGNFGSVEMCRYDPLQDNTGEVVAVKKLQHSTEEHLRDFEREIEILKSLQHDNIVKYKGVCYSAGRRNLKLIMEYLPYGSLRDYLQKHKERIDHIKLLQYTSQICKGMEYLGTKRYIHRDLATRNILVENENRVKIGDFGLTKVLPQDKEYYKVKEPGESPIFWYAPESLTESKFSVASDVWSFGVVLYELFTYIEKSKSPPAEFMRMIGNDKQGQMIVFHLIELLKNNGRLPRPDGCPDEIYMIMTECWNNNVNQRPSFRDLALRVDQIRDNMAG

For `CCCC(=O)O` [butyric acid], the “JAK2 KD expression increase over that of ruxolitinib alone” value was “four-fold”.
In the case of `CCCC(CCC)C(=O)O` [valproic acid], the “JAK2 KD expression increase over that of ruxolitinib alone” value (HDAC inhibitor added alongside 1 μM ruxolitinib, 2 mM and 4 mM) is reported as “four-fold”.
